Reference: publication PMC10914731, “Homo-BacPROTAC-induced degradation of ClpC1 as a strategy against drug-resistant mycobacteria” (Nature Communications, 2024)
Values after ≈ are worked out from the molar mass of the structure shown. Values joined by “and” are separate entries in the source; they are usually repeats but may differ in a detail not shown here. Equal values may be shown once. Read-outs that look alike come from different tables or passages of the source. Where a SMILES comes first, the peptide text is derived from it. [ ]: non-standard residue; d: D form. NMeLeu(5-OH,4R) = CN[C@@H](C[C@@H](C)CO)C(=O)O; Phe(βR-OMe) = CO[C@H](c1ccccc1)[C@H](N)C(=O)O; Trp(1-Me) = Cn1cc(C[C@H](N)C(=O)O)c2ccccc21; NMeL = CN[C@@H](CC(C)C)C(=O)O; Pra = C#CC[C@H](N)C(=O)O

Legend:
[1] = system: Salmonella typhimurium; assay: MIC ESKAPES panel, Salmonella typhimurium; format: cell-based
Protocol: (§1) Minimum inhibitory concentration (MIC) against ESKAPES panel of Gram positive and Gram negative pathogens (Enterococcus faecium, Staphylococcus aureus, Klebsiella pneumoniae, Acinetobacter baumannii, Pseudomonas aeruginosa, Enterobacter cloacae and Salmonella typhimurium [ESKAPES panel]) were determined at the FNDR by the standard broth dilution method [CLSI, M100]. […] Mueller Hinton broth (MHB) medium was used to grow ESKAPES panel strains. The individual cultures were added as 200 μL (inoculum of 3–7 × 10^5 cfu/ml) to the respective assay plates in each well to all columns, except the media control (200 μL of medium). […] The assay plates were incubated at 37 °C, and the results were noted on the 2nd day as turbidometric readout. The clear wells indicated inhibition of growth, while the turbid wells indicated uninhibited growth.

[2] = system: M. tuberculosis H37Rv (ATCC 27294); assay: microbe, parasite or virus in culture; format: cell-based
[3] = target: ClpC1 NTD protein (M. tuberculosis) (Mycobacterium tuberculosis, UniProt P9WPC9); assay: biochemical; format: binding
Sequence of ClpC1 NTD protein (M. tuberculosis) (P9WPC9 1-156, looked up, natural form): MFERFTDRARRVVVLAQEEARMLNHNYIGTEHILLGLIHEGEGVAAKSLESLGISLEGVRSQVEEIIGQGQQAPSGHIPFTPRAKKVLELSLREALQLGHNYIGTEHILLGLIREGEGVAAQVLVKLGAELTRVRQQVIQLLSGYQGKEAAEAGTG

[4] = system: Acinetobacter baumannii; assay: MIC ESKAPES panel, Acinetobacter baumannii; format: cell-based
Protocol: as §1

[5] = format: in vitro ADME, Rat; settings: for Microsomal Stability Rat: clearance in microsomes
Outline: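 Read-out: parent loss by HPLC-MS/MS, first-order fit, half-life scaled to %Qh (well-stirred liver model). Conditions: 1 µmol/l cpd, 0.5 mg/ml microsomes, 100 mM Tris-HCl pH 7.5, 6.5 mM MgCl2, 1 mM NADPH, 37 °C; acetonitrile stop at multiple times.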

[6] = system: Msm 607; assay: microbe, parasite or virus in culture; format: cell-based
[7] = system: Mtb (katG del) ATCC 35822; assay: microbe, parasite or virus in culture; format: cell-based
[8] = system: Mtb H37Rv in THP-1 macrophages; assay: Intracellular MIC assay in THP-1 macrophages; format: cell-based, Mycobacterium tuberculosis; design: Emax: unit not given here
[9] = in vivo; format: in vivo, BALB/cAnNCrl mice; settings: BLOQ <1.00 nmol/L
Protocol: The in-life experimental procedures were conducted in strict compliance with German and European animal welfare legislation in an AAALAC-accredited facility. Male BALB/cAnNCrl mice (Charles River Laboratories Research Models and Services, 97633 Sulzfeld, Germany) were used. Animals were 9 weeks old at dosing with a body weight of 21.6–24.3 g. Animals were delivered free of pathogens according to FELASA recommendations with a health certificate provided by the breeder. Upon receipt, the state of health and sex was checked. Animals acclimatized for at least 5 days before the commencement of the in-life phase. During acclimation, animals were group-housed in individually ventilated cages, on birch wood granulate bedding with species-specific enrichment (nesting material, mouse igloo, gnawing wood). During experimental conduct, animals were housed in conventional cages with elevated grid floors. Grid floor was used to avoid contamination with test item material excreted via urine and feces and subsequent reuptake during fur grooming. No bedding and enrichment were provided except a cage divider, which can be used as a shelter. Animals always had unlimited access to food and water and received a pelleted, total pathogen-free maintenance diet and tap drinking water, sterilized by filter.
On the day before dosing, test item(s) were suspended in kleptose (20% in WFI) under continuous stirring (3.0 mg/ml). Following 2 min vortexing and 1 h stirring, the formulation was sonicated at 60 °C for 30 min and stirred at ambient temperature overnight. Before dosing, the formulation was vortexed for 2 min followed by ultraturrax treatment for 2 min.
Male BALB/cAnNCrl mice (n = 3 per test item and administration route) received a bolus dose of the formulated test item(s) (1 mg/kg iv, 30 mg/kg po) at t = 0 h, and whole blood samples were collected subsequently (35 µl at 0.1 (iv) / 0.25 (po), 0.5, 1, 2, 4, 6 h; 600 µl at sacrifice after 24 h). Animals were euthanized by exsanguination in deep isoflurane anesthesia. Whole blood samples were immediately stored on ice at about 4 °C. Plasma was separated by centrifugation at approximately 10,000 × g for 5 m at +4 °C. Centrifugation of each blood sample was started within 10 m after collection. A single aliquot of at least 15 µL of plasma was prepared and immediately stored at −20 ± 5 °C.
Sample proteins were precipitated with ACN (1 + 12, v/v) containing internal standard, and supernatants analyzed by quantitative UPLC-MS/MS: Phenomenex Luna Omega C18, 2.1 × 50 mm, 1.6 µm, 40 °C, gradient between 10% - 90% ACN with 0.1% formic acid. LogD determination: Lipophilicity of the test items, expressed as chromLogD7.5, was assessed by measuring their chromatographic retention times on C18-material. The chromatographic retention versus logD7.5 values of a series of thirteen n-alkan-2-ones (2-butanone – 2-hexadecanone) served as lipophilicity calibration.

[10] = Salmonella enterica, TYPHIMURIUM, Gram negative, n = 3 well replicates
[11] = Salmonella enterica, TYPHIMURIUM, Gram-Negative Bacteria, replicates 1-3
[12] = M. tuberculosis H37Rv 27294, single well replicates, read-out: MIC
[13] = Mycobacterium tuberculosis, M. tuberculosis H37Rv 27294, single well replicates, read-out: MIC
[14] = Mycobacterium tuberculosis, M. tuberculosis H37Rv strain, read-out: MIC Mtb H37Rv Mean ± SD
[15] = Mycobacterium tuberculosis, Mtb H37Rv (Supplementary Table 2), read-out: MIC Mtb
[16] = Mycobacterium tuberculosis, Mtb H37Rv, mean ± SD, n = 3 well replicates, read-out: MIC
[17] = Mycobacterium tuberculosis, Set 1, read-out: MIC (Mtb H37Rv) Set 1
[18] = Mycobacterium tuberculosis, Set 2, read-out: MIC (Mtb H37Rv) Set 2
[19] = Mycobacterium tuberculosis, Set 3, done at a different day than Set 1 and Set 2, read-out: MIC (Mtb H37Rv) Set 3
[20] = Mycobacterium tuberculosis, individual example (Supplementary Table 11), read-out: MIC Mtb H37Rv
[21] = Mycobacterium tuberculosis, mean of 3 experiments +/- SD, unit taken from the sets above in the same table, read-out: MIC data (Mtb H37Rv) (+/- SD)
[22] = individual measurements (source data), read-out: Mtb MIC
[23] = SPR, individual measurements (source data), read-out: KD ClpC1-NTD
[24] = SPR, read-out: ClpC1-NTD KD Mean ± SD
[25] = Gram negative, n = 3 well replicates, read-out: MIC Acinetobacter baumanii
[26] = Gram-Negative Bacteria, replicates 1-3, read-out: MIC Acinetobacter baumannii
[27] = Mycolicibacterium smegmatis, 607, read-out: MIC Msm 607
[28] = Mycolicibacterium smegmatis, 607, read-out: MIC Msm #607, individual example (Supplementary Table 11)
[29] = Mycolicibacterium smegmatis, ATCC607, Set-3, done at a different day than Set 1 and Set 2, read-out: MIC (Msm ATCC607) Set-3
[30] = Mycolicibacterium smegmatis, ATCC607, mean of 3 experiments ± SD, read-out: MIC including standard deviations (Msm ATCC607)
[31] = Mycobacterium tuberculosis, ATCC35822, M. tuberculosis ATCC 35822, single well replicates
[32] = Mycobacterium tuberculosis, ATCC35822, Mtb (katG del) ATCC 35822, mean ± SD, n = 3 well replicates
[33] = oral gavage 30 mg/kg, mice, Mean
[34] = oral gavage, individual animals 1-3

Row | SMILES | MIC [1, 10] [µM] | MIC [1, 11] | MIC [2, 12] [µM] | MIC [2, 13] [µM] | MIC [2, 14] [µM] | MIC [2, 15] [µM] | MIC [2, 16] [µM] | MIC [2, 17] | MIC [2, 18] | MIC [2, 19] | MIC [2, 20] | MIC [2, 21] | MIC [2, 22] | Kd [3, 23] | Kd [3, 24] [nM] | MIC [4, 25] [µM] | MIC [4, 26] | Microsomal Stability Rat QH [5] [%] | Microsomal Stability Rat [5] [%Qh] | MIC [6, 27] [µM] | also measured
1 | C#CC[C@@H]1NC(=O)[C@H](CC(C)C)N(C)C(=O)[C@H](C(C)C)NC(=O)[C@H]([C@H](OC)c2ccccc2)NC(=O)[C@H](C)NC(=O)[C@H](C[C@@H](C)CO)N(C)C(=O)[C@H](Cc2cn(C)c3ccccc23)NC1=O [Compound 10] (cyclo(A[Phe(βR-OMe)]V[NMeL][Pra][Trp(1-Me)][NMeLeu(5-OH,4R)])) | > 50 | > 45.6 µg/mL | 3.125 (≈ 2.85 µg/mL) | 3.12 (≈ 2.85 µg/mL) | 3.1 (≈ 2.83 µg/mL) | 3.1 (≈ 2.83 µg/mL) | 3.1 (≈ 2.83 µg/mL) | 3.13 µM and 2.85 µg/mL | 3.13 µM and 2.85 µg/mL | 3.13 µM and 2.85 µg/mL | 3.1 µM and 2.9 µg/mL | 3.13 µM and 2.85 µg/mL | 3.125 µM (≈ 2.85 µg/mL) | 4.65 nM and 4.5 nM and 3.27 nM and 3.4 nM | 4 ± 0.7 | > 50 | > 50 µM and > 45.6 µg/mL | 84.600 | 85 | 3.1 (≈ 2.83 µg/mL) | MIC ([1]; Gram-Negative Bacteria, replicates 1-3): >50 µM; MIC ([2]; Mycobacterium tuberculosis, individual measurements (source data), read-out: Mtb MIC): 3.12 µM (≈ 2.85 µg/mL); MIC ([2]; Mycobacterium tuberculosis, single determinations, read-out: Mtb MIC): 3.12 µM (≈ 2.85 µg/mL); MIC [6, 28]: 6.3 µM and 5.7 µg/mL; MIC ([6]; Mycolicibacterium smegmatis, 607, read-out: Msm 607 MIC, single determinations): 3.12 µM (≈ 2.85 µg/mL); MIC ([6]; Mycolicibacterium smegmatis, ATCC607, Set-1, read-out: MIC (Msm ATCC607) Set-1): 3.12 µM and 2.85 µg/mL; MIC ([6]; Mycolicibacterium smegmatis, ATCC607, Set-2, read-out: MIC (Msm ATCC607) Set-2): 6.25 µM and 5.71 µg/mL; MIC [6, 29]: 3.12 µM and 2.85 µg/mL; MIC [6, 30]: 4.16 µM and 3.8 µg/mL; MIC [7, 31]: 1.56 µM (≈ 1.42 µg/mL); MIC [7, 32]: 1.6 µM (≈ 1.46 µg/mL); Emax [8]: 0.19
2 | CO[C@H](c1ccccc1)[C@@H]1NC(=O)[C@H](C)NC(=O)[C@H](C[C@@H](C)CO)N(C)C(=O)[C@H](Cc2cn(Cc3cn(CCOCCn4cc(Cn5cc(C[C@@H]6NC(=O)[C@H](C(C)C)NC(=O)[C@H](CC(C)C)N(C)C(=O)[C@H](C(C)C)NC(=O)[C@H]([C@H](OC)c7ccccc7)NC(=O)[C@H](C)NC(=O)[C@H](C[C@@H](C)CO)N(C)C6=O)c6ccccc65)nn4)nn3)c3ccccc23)NC(=O)[C@H](C(C)C)NC(=O)[C@H](CC(C)C)N(C)C(=O)[C@H](C(C)C)NC1=O [Compound 6] |  |  |  |  | 0.4 ± 0.3 (≈ 0.815 µg/mL) | 0.4 ± 0.3 (≈ 0.815 µg/mL) |  |  |  |  |  |  | 0.390 µM and 0.780 µM and 0.097 µM and 0.195 µM | 1.36 nM and 1.13 nM and 0.535 nM and 0.649 nM | 0.9 ± 0.4 |  |  | <23.100 | < 23 | 2.3 ± 0.9 (≈ 4.69 µg/mL) | Plasma concentration 0.5 h [9, 33]: BLOQ; Plasma concentration 1 h [9, 33]: BLOQ; Plasma concentration 2 h [9, 33]: BLOQ; Plasma concentration 4 h [9, 33]: BLOQ; Plasma concentration 6 h [9, 33]: BLOQ; Plasma concentration 24 h [9, 33]: BLOQ; Plasma concentration […] [9, 33]: BLOQ; Plasma concentration 0.5 h [9, 34]: BLOQ; Plasma concentration 1 h [9, 34]: BLOQ; Plasma concentration 2 h [9, 34]: BLOQ; Plasma concentration 4 h [9, 34]: BLOQ; Plasma concentration 6 h [9, 34]: BLOQ; Plasma concentration 24 h [9, 34]: BLOQ; Plasma concentration […] [9, 34]: BLOQ; koff ([3]; SPR dissociation rate constant, read-out: koff ClpC1-NTD Mean ± SD): 0.001 s⁻¹; koff ClpC1-NTD ([3]; SPR, single independent measurements): 0.001 s⁻¹
3 | COc1c(N2C[C@@H]3CCCN[C@@H]3C2)c(F)cc2c(=O)c(C(=O)O)cn(C3CC3)c12 [Moxifloxacin, reference compound] | 0.6 | 0.62 µM and 0.25 µg/mL | 0.16 (≈ 0.0642 µg/mL) | 0.16 (≈ 0.0642 µg/mL) |  |  | 0.2 (≈ 0.0803 µg/mL) | 0.07 µM and 0.03 µg/mL | 0.15 µM and 0.06 µg/mL | 0.07 µM and 0.03 µg/mL | 0.1 µM and 0.03 µg/mL | 0.1 µM and 0.04 µg/mL |  |  |  | 0.3 (≈ 0.12 µg/mL) | 0.31 µM and 0.125 µg/mL |  |  |  | MIC [6, 28]: 0.1 µM and 0.1 µg/mL; MIC [6, 29]: 0.15 µM and 0.06 µg/mL; MIC [6, 30]: 0.015 µM and 0.06 µg/mL; MIC ([6]; Mycolicibacterium smegmatis, ATCC607, read-out: MIC (Msm ATCC607) Set-1): 0.15 µM and 0.06 µg/mL; MIC ([6]; Mycolicibacterium smegmatis, ATCC607, read-out: MIC (Msm ATCC607) Set-2): 0.15 µM and 0.06 µg/mL; MIC ([7]; M. tuberculosis ATCC 35822, single well replicates): 0.31 µM (≈ 0.124 µg/mL); MIC [7, 31]: 0.31 µM (≈ 0.124 µg/mL); MIC [7, 32]: 0.3 µM (≈ 0.12 µg/mL)
